These results are taken from US9072737B2, “tPA mutant in the treatment of acute brain injury and neurodegenerative disorders” (HADASIT MEDICAL RESEARCH SERVICES & DEVELOPMENT LTD., priority 2008, dated 2015).

The assay relates to Blood Brain Barrier (BBB). Briefly: Blood brain barrier permeability, Evans blue uptake into brain. Format: in vivo, mice. Particulars: peptide 1 mg/kg i.p. together with tPA 1 mg/kg; FIG. 4A. The method, then: The uptake of Evans blue dye into a brain tissue served as a marker to for quantifying disruption of the blood-brain barrier and increase in permeability of the BBB. […] Data was expressed as absorbance at 620 nm per gram of tissue. The mean±SEM of data from 8-9 animals/group are shown.
FIG. 4A. Mice were injected i.p. with 25 μl of saline or saline containing either WT-tPA or mtPA (1 mg/kg each) alone or together with PAI-1 derived 18 amino acids (aa) (as denoted by SEQ ID NO. 8) or 6 aa (as denoted by SEQ ID NO. 3) peptides (1 mg/kg each). Ten minutes later, the mice were given an i.v. injection of 2% Evans blue (EB) in saline. One hour after injection of dye, organs were cleared of blood by transcardiac perfusion. […] Extruded dye was quantified by absorbance at 620 nm. The figure presents a histogram illustration of the absorbance of EB at […] per gram of tissue. […]
To determine the effect of injection of tPA-S^481A on BBB function, anesthetized mice were injected i.p. with 25 μl of saline or saline containing tPA or tPA mutant (tPA-Ser^481Ala) (1 mg/kg each), followed by the intravenous injection of 2% Evans blue in saline. Evans blue was quantified by absorbance at 620 nm.
Plasminogen activator inhibitor-1 (PAI-1) is recognized as the inhibitor of tPA. […] Extruded dye was quantified by absorbance at 620 nm. Data are expressed in FIG. 4A as absorbance per gram of tissue.

Turning to “EEIIMD (listed as Homo sapiens) [reference compound]”, the “inhibition of recombinant tPA-induced BBB permeability” value was “failed to decrease”.
